Measured values reported in patent US11040028B2, “Penicinotam derivative, preparation method and use thereof” (OCEAN UNIVERSITY OF CHINA, priority 2017, dated 2021).

Tests used:
[1] = pirfenidone, stated as known property; cited from earlier work
[2] = system: BHK-21 cells; assay: Anti-fibrosis activity test: inhibition of BHK-21 cell proliferation (CCK-8); type: cell-based; details: Mesocricetus auratus, BHK-21, 48 h, CCK-8, 48 hours after administration
How it was run: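 Proliferation inhibition was read as CCK-8 absorbance at 450 nm (2-hour development) relative to untreated blank, with IC50 fitted from the curve. Before that, adhered cells (2×10^4 cells/mL, 24 hours) had 48 hours' treatment at several concentrations, in triplicate, at 37° C/5% CO2; pirfenidone was the reference.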

[3] = system: human embryonic lung fibroblast IMR-90; assay: Anti-fibrosis activity test: inhibition of proliferation of human embryonic lung fibroblast IMR-90 (CCK-8); type: cell-based; details: human embryonic lung fibroblast IMR-90, CCK-8, 48 hours
How it was run: (§1)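 Proliferation inhibition is measured by CCK-8 after cells plated at 2×10^4 cells/mL attach overnight (24 h) and then receive test compounds for 48 h at several concentrations, each in triplicate. Optical density at 450 nm gives IR = (1−Ai/Ao)×100%, from which IC50 is computed.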

[4] = system: human dermal fibroblasts CCC-ESF-1; assay: Anti-fibrosis activity test: inhibition of proliferation of human dermal fibroblasts CCC-ESF-1 (CCK-8); type: cell-based; details: Fibroblast; human dermal fibroblasts CCC-ESF-1, CCK-8, 48 hours
How it was run: as §1

[5] = system: cardiac fibroblast RAT-iCell-C002; assay: Anti-fibrosis activity test: inhibition of proliferation of cardiac fibroblast RAT-iCell-C002 (CCK-8); type: cell-based; details: Cardiac fibroblast, 48 h, cardiac fibroblast RAT-iCell-C002, CCK-8, 48 hours
How it was run: as §1

[6] = system: human fibrosarcoma cells HT-1080; assay: Anti-fibrosis activity test: inhibition of proliferation of human fibrosarcoma cells HT-1080 (CCK-8); type: cell-based; details: Homo sapiens, HT-1080, 48 h, human fibrosarcoma cells HT-1080, CCK-8, 48 hours
How it was run: as §1

[7] = system: human hepatic stellate cells LX-2; assay: Anti-fibrosis activity test: inhibition of proliferation of human hepatic stellate cells LX-2 (CCK-8); type: cell-based; details: Homo sapiens, 48 h, human hepatic stellate cells LX-2, CCK-8, 48 hours
How it was run: as §1

[8] = system: human lung fibroblasts HFL1; assay: Anti-fibrosis activity test: inhibition of proliferation of human lung fibroblasts HFL1 (CCK-8); type: cell-based; details: Homo sapiens, HFL1, 48 h, human lung fibroblasts HFL1, CCK-8, 48 hours
How it was run: as §1

[9] = system: NF-κB; assay: Immunological activity test: inhibition of NF-κB activity; type: cell-based; details: initial concentration of 30 μM; a/b isomers given as first/second symbol; read-out: IC50 (μM), inhibitory activity against NF-κB
How it was run: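 Each compound is tested at 30 μM for its ability to suppress NF-κB signalling. Parthenolide runs alongside as the positive control, and the data are then analysed to give IC50 values.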

[10] = system: mouse macrophages (RAW264.7); assay: Lipopolysaccharide-induced NO secretion in macrophages (Griess); type: cell-based; details: Mus musculus, RAW264.7, 24 h, RAW264.7, LPS 1 μg/ml, a/b isomers given as first/second symbol, read-out: IC50 (μM), inhibition of lipopolysaccharide-induced NO secretion in macrophages
How it was run: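 Indomethacin and resveratrol served as positive controls while compounds were tested across concentrations on LPS-stimulated (1 μg/ml, 24 h) RAW264.7 cells. NO output was quantified colorimetrically (Griess, 548 nm).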

IC50 [6] [mM]	IC50 [9] [µM]	IC50 [10] [µM]	Compound	phototoxic reactions [1]	IC50 [2] [mM]	IC50 [3] [mM]	IC50 [4] [mM]	IC50 [5] [mM]	IC50 [7] [mM]	IC50 [8] [mM]
20 to 100	–	–	Cc1ccc(=O)n(-c2ccccc2)c1 [pirfenidone, reference compound]	phototxic reactions, which are produced by pirfenidone	20 to 100	20 to 100	20 to 100	20 to 100	20 to 100	5 to 20
0.05 to 5	1 to 10	1 to 10	N#Cc1ccc2c(=O)c3c([nH]c2c1)-c1cccn1C3=O [Compound 512a, 9,10-Dioxo-4,10-dihydro-9H-pyrrolizino[1,2-b]quinoline-6-carbonitrile]	–	0.05 to 5	0.05 to 5	0.05 to 5	0.05 to 5	< 0.05	0.05 to 5
< 0.05	0.1 to 1	0.1 to 1	N#Cc1cccc2c(=O)c3c([nH]c12)-c1cccn1C3=O [Compound 447a, 9,10-Dioxo-4,10-dihydro-9H-pyrrolizino[1,2-b]quinoline-5-carbonitrile]	–	0.05 to 5	0.05 to 5	0.05 to 5	0.05 to 5	0.05 to 5	0.05 to 5
0.05 to 5	1 to 10	10 to 50	O=C1c2c(nc3ccccc3c2OCc2ccccc2Br)-c2cccn21 [Compound 612b, 9-((2-bromobenzyl)oxy)-10H-pyrrolizino[1,2-b]quinolin-10-one]	–	0.05 to 5	0.05 to 5	0.05 to 5	0.05 to 5	0.05 to 5	0.05 to 5
